Patent publication US12679801B2, “Amino lipid and preparation method and application thereof” (Shenzhen MagicRNA Biotechnology Co., Ltd., priority 2022, dated 2026)

Columns and labels:
[1] = system: BMDC primary cells; assay: Luc mRNA LNP transfection on BMDC primary cells (Embodiment 21, Table 9); type: cell-based, C57BL/6 mice; settings: 16 h, ONE-Glo Luciferase
Experimental: Preparation method: the same as that in Embodiment 17.
Animal preparation: 6-week-old female C57BL/6 mice with the body weight about 20 g were selected. A feeding environment was an SPF stage feeding room. Animal tests were strictly performed according to the guide of the national health institute and the animal ethics requirements.
(§1) Cell acquisition: C57BL/6 mice were killed through cervical dislocation, and were soaked for 5 min in 75% ethyl alcohol. Dissection was performed to obtain thigh and calf tibiae of the mice. Attached muscles were removed to expose sclerotin. Then, bone marrow in tibiae was blown out by using a 1 mL injector sucked with PBS. After the bone marrow was blown away, impurities were filtered away by a 50 μm filter screen. A red blood cell lysis buffer (3-4 mL) was added into an obtained filtrate. Then, after placement for 5 min, 800 g centrifugation was performed for 5 min to remove a supernatant. The obtained cells were placed into a 1640 culture medium (containing 10% fetal calf serum, 20 ng/mL GMCSF and 10 ng/mL IL4) to be resuspended, and were inoculated into a 6-well plate at an inoculation density of 100000 cells/ml culture medium. The materials were placed into a 37° C. cell incubator containing 5% CO2. Half liquid change was performed once every 2 days. Suspended cells and loose wall attached cells were collected on the seventh day, and were inoculated to a 96-well all-white ELISA plate at the inoculation density of 20000 cells per well, and the volume of a culture medium was 100 μL.
(§2) Cell transfection: lipid nanoparticles coated with luciferase mRNA were added into a 96-well white ELISA plate laid with primary cells. The adding volume of the mRNA lipid nanoparticles in each well was controlled to be 10 μL. Then, the materials were put into a 37° C. incubator containing 5% CO2 for 16 h.
Transfection efficiency detection: 20 μL of a substrate ONE-Glo™ Luciferase was added into each well of a 96-well all-white ELISA plate, and after 1 min, detection was performed by a multifunctional or multimode microplate reader.

[2] = system: BMDC primary cells; assay: Luc mRNA LNP transfection on BMDC primary cells (Embodiment 13, Table 3); type: cell-based, C57BL/6 mice; settings: 16 h, ONE-Glo Luciferase
Experimental: Preparation method: the same as that described in Embodiment 7.
Animal preparation: 6-week-old female C57BL/6 mice with the body weight about 20 g were selected. The feeding environment was an SPF stage feeding room. Animal tests were strictly performed according to the guide of the national health institute and the animal ethics requirements.
as §1, with “remove the” for “remove a”, “10 ng/ml” for “10 ng/mL”, “were” for “were inoculated to a 96-well all-white ELISA plate at the inoculation density of 20000 cells”
as §2, with “all-white” for “white”
Transfection efficiency detection: 20 μL of a substrate ONE-Glo™ Luciferase was added into each well of a 96-well all-white ELISA plate. After 1 min, detection was performed by a multifunctional or multimode microplate reader.

SMILES | Luciferase luminescence intensity [1] | Luciferase luminescence intensity [2] [E+ 04]
CCCCCCCCCC(CCCCCCCCC)C(=O)OCC(CCCCCC)OC(=O)CCCCN(C)C (centres unmarked) [E3C116A11] | 4.4E+04 | 
CCCCCCCCCCC(CCCC)C(=O)OCC(CCCCCCCC)OC(=O)CCCN(C)C (centres unmarked) [E5C104A9] | 5.2E+04 | 
CCCCCCCCCCC(CCCC)C(=O)OCC(CCCCCCCC)OC(=O)CCCCN(C)C (centres unmarked) [E5C104A11] | 4.0E+04 | 
CCCCCCCCCC(CCCCC)C(=O)OCC(CCCCCCCC)OC(=O)CCCN(C)C (centres unmarked) [E5C109A9] | 3.9E+03 | 
CCCCCCCCC(COC(=O)C(CCCCCCC)CCCCCCC)OC(=O)CCCN(C)C (centres unmarked) [E5C114A9] | 8.6E+03 | 
CCCCCCCCC(COC(=O)C(CCCCCCC)CCCCCCC)OC(=O)CCCCN(C)C (centres unmarked) [E5C114A11] | 4.6E+04 | 
CCCCCCCCC(COC(=O)C(CCCCCCCC)CCCCCCCC)OC(=O)CCCN(C)C (centres unmarked) [E5C115A9] | 2.7E+04 | 
CCCCCCCCC(COC(=O)C(CCCCCCCC)CCCCCCCC)OC(=O)CCCCN(C)C (centres unmarked) [E5C115A11] | 1.1E+05 | 
CCCCCCCCCC(CCCCCCCCC)C(=O)OCC(CCCCCCCC)OC(=O)CCCCN(C)C (centres unmarked) [E5C116A11] | 6.2E+04 | 
CCCCCCCCCCC(CCCC)CC(=O)OCC(CCCCCCCC)OC(=O)CCCN(C)C (centres unmarked) [E5C119A9] | 4.1E+04 | 
CCCCCCCCC(COC(=O)CC(CCCCCCC)CCCCCCC)OC(=O)CCCN(C)C (centres unmarked) [E5C128A9] | 3.9E+04 | 
CCCCCCCCC(COC(=O)CC(CCCCCCC)CCCCCCC)OC(=O)CCCCN(C)C (centres unmarked) [E5C128A11] | 4.3E+04 | 
CCCCCCCCCCC(COC(=O)C(CCCC)CCCCCCCCCC)OC(=O)CCCN(C)C (centres unmarked) [E7C104A9] | 3.9E+04 | 
CCCCCCCCCCCCC(CCCC)C(=O)OCC(CCCCCCCCCC)OC(=O)CCCN(C)C (centres unmarked) [E7C106A9] | 3.9E+04 | 
CCCCCCCCCCC(COC(=O)C(CCCCCCC)CCCCCCC)OC(=O)CCCN(C)C (centres unmarked) [E7C114A9, 2-((4-(Dimethylamino)Butanoyl)Oxy) Dodecyl 2-Heptylnonanoate] | 6.6E+04 | 
CCCCCCCCCCC(COC(=O)C(CCCCCCC)CCCCCCC)OC(=O)CCCCN(C)C (centres unmarked) [E7C114A11] | 9.9E+04 | 
CCCCCCCCCCC(COC(=O)C(CCCCCCCC)CCCCCCCC)OC(=O)CCCN(C)C (centres unmarked) [E7C115A9] | 5.6E+04 | 
CCCCCCCCCCC(COC(=O)C(CCCCCCCCC)CCCCCCCCC)OC(=O)CCCCN(C)C (centres unmarked) [E7C116A11] | 9.2E+04 | 
CCCCCCCCCCC(COC(=O)CC(CCCCC)CCCCCCCCC)OC(=O)CCCN(C)C (centres unmarked) [E7C123A9] | 4.3E+04 | 
CCCCCCCCCCC(COC(=O)CC(CCCCCC)CCCCCCCC)OC(=O)CCCCN(C)C (centres unmarked) [E7C126A11] | 3.9E+04 | 
CCCCCCCCCCC(COC(=O)CC(CCCCCCC)CCCCCCC)OC(=O)CCCN(C)C (centres unmarked) [E7C128A9] | 3.5E+04 | 
CCCCCCCCCCC(COC(=O)CC(CCCCCCC)CCCCCCC)OC(=O)CCCCN(C)C (centres unmarked) [E7C128A11] | 3.6E+04 | 
CCCCCCCCCCCC(COC(=O)C(CCCC)CCCCCCCCCC)OC(=O)CCCN(C)C (centres unmarked) [E8C104A9] | 3.7E+04 | 
CCCCCCCCCCCC(COC(=O)C(CCCCC)CCCCCCCCC)OC(=O)CCCN(C)C (centres unmarked) [E8C109A9] | 4.8E+04 | 
CCCCCCCCCCCC(COC(=O)C(CCCCC)CCCCCCCCCCC)OC(=O)CCCN(C)C (centres unmarked) [E8C111A9] | 4.6E+04 | 
CCCCCCCCCCCC(COC(=O)C(CCCCCCC)CCCCCCC)OC(=O)CCCN(C)C (centres unmarked) [E8C114A9] | 6.8E+04 | 
CCCCCCCCCCCC(COC(=O)C(CCCCCCC)CCCCCCC)OC(=O)CCCCN(C)C (centres unmarked) [E8C114A11] | 1.3E+05 | 

SMILES | Luciferase luminescence intensity [1] | Luciferase luminescence intensity [2] [E+ 04]
CCCCCCCCCCCC(COC(=O)C(CCCCCCCC)CCCCCCCC)OC(=O)CCCN(C)C (centres unmarked) [E8C115A9] | 6.0E+04 | 
CCCCCCCCCCCC(COC(=O)C(CCCCCCCC)CCCCCCCC)OC(=O)CCCCN(C)C (centres unmarked) [E8C115A11] | 1.9E+05 | 
CCCCCCCCCCCC(COC(=O)C(CCCCCCCCC)CCCCCCCCC)OC(=O)CCCCN(C)C (centres unmarked) [E8C116A11] | 5.0E+04 | 
CCCCCCCCCCCC(COC(=O)CC(CCCCC)CCCCCCCCC)OC(=O)CCCCN(C)C (centres unmarked) [E8C123A11] | 7.1E+04 | 
CCCCCCCCCCCC(COC(=O)CC(CCCCCCC)CCCCCCC)OC(=O)CCCN(C)C (centres unmarked) [E8C128A9] | 3.9E+04 | 
CCCCCCCCCCCC(COC(=O)CC(CCCCCCC)CCCCCCC)OC(=O)CCCCN(C)C (centres unmarked) [E8C128A11] | 3.5E+04 | 
CCCCCCCCCCCCC(COC(=O)C(CCCC)CCCCCCCCCC)OC(=O)CCCN(C)C (centres unmarked) [E9C104A9] | 3.6E+04 | 
CCCCCCCCCCCCC(COC(=O)C(CCCC)CCCCCCCCCC)OC(=O)CCCCN(C)C (centres unmarked) [E9C104A11] | 4.4E+04 | 
CCCCCCCCCCCCC(COC(=O)C(CCCCC)CCCCCCCCC)OC(=O)CCCN(C)C (centres unmarked) [E9C109A9] | 3.6E+04 | 
CCCCCCCCCCCCC(COC(=O)C(CCCCC)CCCCCCCCC)OC(=O)CCCCN(C)C (centres unmarked) [E9C109A11] | 3.6E+04 | 
CCCCCCCCCCCCC(COC(=O)C(CCCCC)CCCCCCCCCCC)OC(=O)CCCCN(C)C (centres unmarked) [E9C111A11] | 3.9E+04 | 
CCCCCCCCCCCCC(COC(=O)C(CCCCCCC)CCCCCCC)OC(=O)CCCN(C)C (centres unmarked) [E9C114A9] | 9.1E+04 | 
CCCCCCCCCCCCC(COC(=O)C(CCCCCCC)CCCCCCC)OC(=O)CCCCN(C)C (centres unmarked) [E9C114A11] | 8.5E+04 | 
CCCCCCCCCCCCC(COC(=O)C(CCCCCCCC)CCCCCCCC)OC(=O)CCCN(C)C (centres unmarked) [E9C115A9] | 1.4E+05 | 
CCCCCCCCCCCCC(COC(=O)C(CCCCCCCC)CCCCCCCC)OC(=O)CCCCN(C)C (centres unmarked) [E9C115A11] | 1.9E+05 | 
CCCCCCCCCCCCC(COC(=O)C(CCCCCCCCC)CCCCCCCCC)OC(=O)CCCCN(C)C (centres unmarked) [E9C116A11] | 7.6E+04 | 
CCCCCCCCCCCCC(COC(=O)CC(CCCCC)CCCCCCCCC)OC(=O)CCCCN(C)C (centres unmarked) [E9C123A11] | 5.1E+04 | 
CCCCCCCCCCCCC(COC(=O)CC(CCCCCCC)CCCCCCC)OC(=O)CCCN(C)C (centres unmarked) [E9C128A9] | 3.7E+04 | 
CCCCCCCCCCCCC(COC(=O)CC(CCCCCCC)CCCCCCC)OC(=O)CCCCN(C)C (centres unmarked) [E9C128A11] | 3.5E+04 | 
CCCCCCCCCCCCCC(COC(=O)C(CCCC)CCCCCCCCCCCC)OC(=O)CCCN(C)C (centres unmarked) [E10C106A9] | 4.2E+04 | 
CCCCCCCCCCCCCC(COC(=O)C(CCCCC)CCCCCCCCC)OC(=O)CCCCN(C)C (centres unmarked) [E10C109A11] | 3.5E+04 | 
CCCCCCCCCCCCCC(COC(=O)C(CCCCC)CCCCCCCCCCC)OC(=O)CCCN(C)C (centres unmarked) [E10C111A9] | 3.7E+04 | 
CCCCCCCCCCCCCC(COC(=O)C(CCCCCCC)CCCCCCC)OC(=O)CCCN(C)C (centres unmarked) [E10C114A9] | 4.3E+04 | 
CCCCCC(CCCC)C(COC(=O)CCCCCCCCCCCC(C)C)OC(=O)CCCN(C)C (centres unmarked) [E21C67A9] |  | 3.2
CCCCCCCCC(CCCCCC)C(=O)OCC(OC(=O)C1CCN(C)CC1)C(CCCC)CCCCC (centres unmarked) [E21C71A23] |  | 1.9
CCCCCCCCCCCCCC(=O)OC(CC(F)(F)C(F)(F)C(F)(F)C(F)(F)C(F)(F)C(F)(F)F)OC(=O)CCCN(C)C (centres unmarked) [E24C9A9, 1-((4-(Dimethylamino)Butyryl)Oxy)-3,3,4,4,5,5,6,6,7,7,8,8,8-Tridecafluorooctyl Tetradecanoate] |  | 1.1
